# Source: PMC7265429, “Characterization of a new small-molecule inhibitor of HDAC6 in glioblastoma” (Cell Death & Disease, 2020)
# Tested on: GNS166 cells
# Assay: Microarray whole-transcriptome gene expression analysis
# Assay type: cell-based, human
# Protocol: Whole-transcriptome analysis was performed from 300 ng of RNA using HuGene-2_0-st-v1 expression array (Affymetrix), which covers 48,226 transcripts. Raw data were first checked for quality purposes through the Affymetrix® Expression Console™ Software v1.4.1 and TAC software v4.0. Then, data were normalized using the Robust Multi-array Average (RMA) and analyzed by Limma tool. Probesets with FDR-corrected p-values smaller than 0.05 were selected. Functional enrichment on Gene Ontology (GO) biological processes was performed on a smaller subset of the differentially expressed genes (corrected p-value < 0.001) by means of Broad Institute GSEA. […] The data that support this study have been deposited in NCBI´s Gene Expression Omnibus and are accessible through GEO series accession number GSE143887.
# [1] = sheet DMSO-SAHA_DOWN, microarray
structure (smiles),measurement,setting,value
"O=C(CCCCCCC(=O)Nc1ccccc1)NO [SAHA, Suberoylanilide hydroxamic acid]",logFC ZNF85,"DMSO vs SAHA, downregulated, transcript TC1900007502.hg.1",-1.299
same,logFC ZNF254,"DMSO vs SAHA, downregulated, transcript TC1900007622.hg.1",-1.436
same,logFC AXL,"DMSO vs SAHA, downregulated, transcript TC1900008143.hg.1",-2.335
same,logFC KEAP1,"DMSO vs SAHA, downregulated, transcript TC1900009630.hg.1",-1.437
same,logFC EMP3,"DMSO vs SAHA, downregulated, transcript TC1900011774.hg.1",-1.798
same,logFC UBE2C,"DMSO vs SAHA, downregulated, transcript TC2000007503.hg.1",-1.95
same,logFC JPH2,"DMSO vs SAHA, downregulated, transcript TC2000009178.hg.1",-1.382
same,logFC ZFP64,"DMSO vs SAHA, downregulated, transcript TC2000009469.hg.1",-1.251
same,logFC AURKA,"DMSO vs SAHA, downregulated, transcript TC2000009550.hg.1",-1.686
same,logFC UCKL1,"DMSO vs SAHA, downregulated, transcript TC2000009848.hg.1",-1.222
same,logFC MX1,"DMSO vs SAHA, downregulated, transcript TC2100007208.hg.1",-1.686
same,logFC COL6A1,"DMSO vs SAHA, downregulated, transcript TC2100007446.hg.1",-1.16
same,logFC SUMO3,"DMSO vs SAHA, downregulated, transcript TC2100008385.hg.1",-1.431
same,logFC TRIOBP,"DMSO vs SAHA, downregulated, transcript TC2200007313.hg.1",-1.456
same,logFC MICALL1,"DMSO vs SAHA, downregulated, transcript TC2200007324.hg.1",-1.322
same,logFC ZC3H7B,"DMSO vs SAHA, downregulated, transcript TC2200007467.hg.1",-1.779
same,logFC GTSE1,"DMSO vs SAHA, downregulated, transcript TC2200007662.hg.1",-1.615
same,logFC TXNRD2,"DMSO vs SAHA, downregulated, transcript TC2200008001.hg.1",-1.47
same,logFC PATZ1,"DMSO vs SAHA, downregulated, transcript TC2200008477.hg.1",-1.5057
same,logFC NDUFA6,"DMSO vs SAHA, downregulated, transcript TC2200008859.hg.1",-1.148
same,logFC APOBEC3B,"DMSO vs SAHA, downregulated, transcript TC2200009270.hg.1",-1.723
same,logFC APOBEC3C,"DMSO vs SAHA, downregulated, transcript TC2200009271.hg.1",-1.685
same,logFC RBX1,"DMSO vs SAHA, downregulated, transcript TC2200009278.hg.1",-1.233
same,logFC TRMU,"DMSO vs SAHA, downregulated, transcript TC2200009288.hg.1",-1.487
same,logFC KIF15,"DMSO vs SAHA, downregulated, transcript TSUnmapped00000255.hg.1",-1.857
same,logFC KIF15,"DMSO vs SAHA, downregulated, transcript TSUnmapped00000627.hg.1",-1.713
same,logFC AES (transcript TC1900009272.hg.1),[1],-1.167
same,logFC APOBEC3G (transcript TC2200009274.hg.1),[1],-1.162
same,logFC ATF7 (transcript TC1200010809.hg.1),[1],-0.8995
same,logFC ATG4D (transcript TC1900006989.hg.1),[1],-0.9381
same,logFC ATP5G2 (transcript TC1200012798.hg.1),[1],-0.8974
same,logFC ATXN10 (transcript TC2200007626.hg.1),[1],-0.8219
same,logFC AVEN (transcript TC1500008971.hg.1),[1],-1.4
same,logFC B4GALT2 (transcript TC0100008082.hg.1),[1],-1.044
same,logFC BORCS7-ASMT (transcript TC1000012497.hg.1),[1],-1.471
same,logFC C1QBP (transcript TC1700012341.hg.1),[1],-0.864
same,logFC CARD8 (transcript TC1900011061.hg.1),[1],-1.473
same,logFC CD109 (transcript TC0600008539.hg.1),[1],-1.058
same,logFC CDC25B (transcript TC2000006559.hg.1),[1],-1.166
same,logFC COMT (transcript TC2200006623.hg.1),[1],-1.056
same,logFC CXCL14 (transcript TC0500012107.hg.1),[1],-1.597
same,logFC DENND2A (transcript TC0700012813.hg.1),[1],-1.223
same,logFC EOGT (transcript TC0300011448.hg.1),[1],-1.387
same,logFC FAM65B (transcript TC0600014247.hg.1),[1],-1.186
same,logFC FAM83D (transcript TC2000007341.hg.1),[1],-1.0787
same,logFC FBXO32 (transcript TC0800011683.hg.1),[1],-1.239
same,logFC FHL2 (transcript TC0200013750.hg.1),[1],-1.323
same,logFC GYG1 (transcript TC0300009126.hg.1),[1],-0.8272
same,logFC H2AFY2 (transcript TC1000007913.hg.1),[1],-1.438
same,logFC HGSNAT (transcript TC0800007460.hg.1),[1],-1.179
same,logFC HIST1H1E (transcript TC0600007273.hg.1),[1],-0.9296
same,logFC HIST1H2AK (transcript TC0600011228.hg.1),[1],-1.094
same,logFC HIST1H3G (transcript TC0600011142.hg.1),[1],-1.091
same,logFC HIST2H2AB (transcript TC0100015711.hg.1),[1],-1.264
same,logFC HMGB2 (transcript TC0400012432.hg.1),[1],-1.248
same,logFC HNF4G (transcript TC0800008002.hg.1),[1],-1.665
same,logFC HOXB6 (transcript TC1700012433.hg.1),[1],-0.9482
same,logFC HOXB7 (transcript TC1700012434.hg.1),[1],-1.178
same,logFC HSF2BP (transcript TC2100008306.hg.1),[1],-1.094
same,logFC KAT7 (transcript TC1700008216.hg.1),[1],-0.9549
same,logFC KIF15 (transcript TSUnmapped00000127.hg.1),[1],-1.52
same,logFC KIF15 (transcript TSUnmapped00000190.hg.1),[1],-1.209
same,logFC KIF15 (transcript TSUnmapped00000242.hg.1),[1],-1.3548
same,logFC KPNA2 (transcript TC1700008719.hg.1),[1],-0.848
same,logFC KRTCAP2 (transcript TC0100018498.hg.1),[1],-0.9489
same,logFC LOXL1 (transcript TC1500007829.hg.1),[1],-1.906
same,logFC LRRC41 (transcript TC0100014050.hg.1),[1],-1.4599
same,logFC MCPH1 (transcript TC0800006557.hg.1),[1],-1.179
same,logFC MRPL15 (transcript TC0800007653.hg.1),[1],-1.399
same,logFC MSRA (transcript TC0800006697.hg.1),[1],-0.9684
same,logFC MYBL2 (transcript TC2000007438.hg.1),[1],-1.297
same,logFC NCAPG2 (transcript TC0700013290.hg.1),[1],-1.083
same,logFC NFKB1 (transcript TC0400008271.hg.1),[1],-1.316
same,logFC NQO1 (transcript TC1600010732.hg.1),[1],-1.465
same,logFC PKNOX1 (transcript TC2100007278.hg.1),[1],-1.264
same,logFC PRRC2A (transcript TC0600007599.hg.1),[1],-0.9194
same,logFC PTPRE (transcript TC1000009296.hg.1),[1],-0.9151
same,logFC PTRHD1 (transcript TC0200011990.hg.1),[1],-0.8388
same,logFC RHNO1 (transcript TC1200012573.hg.1),[1],-1.078
same,logFC RUNX2 (transcript TC0600008146.hg.1),[1],-1.088
same,logFC SAMD9L (transcript TC0700011797.hg.1),[1],-1.884
same,logFC SCG2 (transcript TC0200015865.hg.1),[1],-0.9206
same,logFC SLC47A2 (transcript TC1700010035.hg.1),[1],-1.04
same,logFC SMARCB1 (transcript TC2200006862.hg.1),[1],-1.487
same,logFC TAPBP (transcript TC0600011536.hg.1),[1],-0.9356
same,logFC TAS2R13 (transcript TC1200009921.hg.1),[1],-1.256
same,logFC TFDP1 (transcript TC1300008144.hg.1),[1],-0.8938
same,logFC TK2 (transcript TC1600011551.hg.1),[1],-1.009
same,logFC TNFRSF12A (transcript TC1600006652.hg.1),[1],-0.9964
